Like-named read-outs stand apart in the source and are kept apart here.

For data set [1], the target named is ETB receptor. Particulars: read-out: K1 of ET-1/ETB binding affinity; cited from earlier work.
Data set [2] deals with unilateral ischemic renal injury. Put plainly: unilateral ischemia/reperfusion (I/R) injury protocol, renal weight two weeks post ischemia. The format is in vivo, CD-1 mice. On the procedure: (§1) All experiments were performed using male 30-45 gram CD-1 mice, obtained from Charles River Laboratories, Wilmington, Mass. They were housed under routine vivarium conditions with free food and water access. Surgeries were conducted under deep pentobarbital anesthesia (40-50 mg/Kg IP). Post surgical analgesia was provided with buprenorphine (0.1 mg/Kg IP) at the completion of surgery. All procedures were approved by the institution's IACUC, in accordance with NIH guidelines.
In this example, ET-1 and ETA/ETB receptor expression were quantified following ischemic renal injury, and ET-1 gene chromatin remodeling and RNA polymerase II (Pol II) binding were evaluated. Ten mice were subjected to a midline laparotomy, and the left renal pedicles were exposed and occluded ×30 min using atraumatic microvascular clamps. Uniform ischemia was confirmed by the development of total kidney cyanosis (indicating hypoxia). Body temperature was monitored with an intra-abdominal thermometer and maintained at 37° C. with an external heating source. At the completion of the ischemic period, the vascular clamp was removed, and uniform reperfusion was confirmed by loss of kidney cyanosis. The abdominal incision was then sutured in two layers using 3-0 chromic suture. The mice were then allowed to recover from anesthesia. Ten additional mice, subjected to the same surgical procedure, but not to renal pedicle occlusion, served as sham-operated controls.
This example studied whether atrasentan treatment, during pre- and post-ischemic period, confers renal protection. Eighteen mice were subjected to a unilateral ischemia/reperfusion (I/R) protocol as described in Example 1. […] Atrasentan was administered in the drinking water (25 μg/mL; designed to equate with a dose of ˜5 mg/Kg/day). Atrasentan dosing was started one day before surgery, and continued throughout the remainder of the experiment. Fresh atrasentan was provided ˜2-3× per week for two weeks. The remaining nine mice received only free food and water access, serving as controls.
The degree of post-ischemic loss of renal mass was assessed by comparing the weights of kidneys from sham operated mice, control post-ischemic mice, and post ischemic mice that had received atrasentan treatment. Finally, frontal sections of post-ischemic kidneys were taken from five control mice and five atrasentan-treated mice, fixed in 10% buffered formalin, and used for subsequent histochemical analyses.
This example studies whether atrasentan treatment, restricted to the post-ischemic period, confers renal protection. This experiment was designed to help resolve the issue of when atrasentan was inducing its protective effect. To this end, the same protocol described in Example 2 was repeated, but atrasentan administration was commenced 24 hours after the induction of ischemic damage). At the end of two weeks, the mice were re-anesthetized and the left and right kidneys were weighed. The degree of post ischemic renal weight reduction (the primary endpoint of the above described experiment) was determined. […]
This example studies the potential effects of atrasentan on renal growth independent of ischemic injury. To ascertain whether atrasentan treatment might impact renal growth or size independent of an effect on renal ischemia/post ischemic injury, renal weights of the contralateral (non ischemic) kidneys from the Example 2 were assessed and compared to ischemic kidneys with and without treatment with atrasentan. […]

Data set [3] has as its system post ischemic kidneys. Put plainly: renal histology (H and E injury score, KI-67 staining) of two week post ischemic kidneys. The format is in vivo, CD-1 mice. Particulars: pre+post atrasentan. On the procedure:
Calculations and Statistics: All values are presented as means±1 SEM. Statistical comparisons were performed by unpaired Student's t test. The mRNA data were generated by competitive RT-PCR, with the results for any given message being expressed as a ratio to the simultaneously determined GAPDH product, used as a housekeeping gene. ChIP data, generated with real time PCR (qPCR) are presented as ng/mg total applied chromatin. The severity of histologic injury, as determined by studying H and E stained kidney sections, was assessed by blinded scoring of slides of 2 week post ischemic kidneys from 5 Atrasentan treated (24 hrs pre-ischemia, and 2 weeks post-ischemia) mice, and from 5 non Atrasentan treated post ischemic controls. […]
This example examined renal histology on kidneys from five control mice and five atrasentan-treated mice from Example 2. […] In addition, renal tubular cell proliferation was assessed by immunohistochemical staining for KI-67, a nuclear protein marker of all active cell cycle phases (G1, S, G2, mitosis; but not Go). (Scholzen T, et al., The Ki-67 protein: from the known and the unknown. J Cell Physiol. 182: 311-322, 2000.) The percent of KI-67 cells was determined on whole kidney sections, captured with ScanScope AT (Aperio, Vista, Calif.), and then analyzed with Nuclear Algorithm Spectrum software (version 11.1.1.764; Aperio).

The subject of data set [4] is bilateral ischemic renal injury. Kind of data set: bilateral ischemic renal injury, severity at 24 hours post ischemia. The format is in vivo, CD-1 mice. Particulars: 22.5 min or 25 min bilateral ischemia. On the procedure:
as §1
This example studies whether atrasentan pre-treatment protects against the acute ischemic injury phase. More particularly, the possibility that atrasentan might mitigate the acute injury phase, and thus, cause a subsequent preservation of renal mass, was explored by subjecting mice to either 22.5 minutes or 25 minutes of bilateral ischemic renal injury in the presence or absence of atrasentan pre-treatment for 24 hours before and for 24 hours after the induction of renal ischemia. […]
The severity of injury was assessed at 24 hours post ischemia by BUN and plasma creatinine concentrations. […] As a second marker of renal injury, renal cortical NGAL mRNA levels were also assessed. Measurement of NGAL mRNA represents a more sensitive biomarker of kidney injury than BUN and Plasma Creatinine measured in FIG. 8 and was measured to investigate the effect of atrasentan on the induction phase of ischemic injury.

Data set [5] relates to proximal tubule (HK-2) cells.
Description: After eighteen hours of incubation, lethal cell injury was assessed by % LDH release.

As to `CCCC[C@@H](NC(=O)[C@@H](Cc1cn(C(=O)OC)c2ccccc12)NC(=O)[C@H](CC(C)(C)C)NC(=O)N1[C@H](C)CCC[C@@H]1C)C(=O)[O-].[Na+]` [BQ-788, N-cis-2,6-dimethylpiperidinocarbonyl-L-gamma-methylleucyl-D-1-methoxycarbonyltryptophanyl-D-norleucine], the Ki in data set [1] is 100 nM. For the same molecule, in data set [2] (BQ-788 administered both pre- and post-ischemia), the “effect on renal parameters measured” value is on record as “no effect on any of the renal parameters measured”. For the same molecule, the “post ischemic kidney weight” value in data set [2] (BQ-788 subcutaneously each day from 1 day before surgery, two weeks post ischemia, control ischemia 0.23 grams) is 0.24 grams.

For `CCCCN(CCCC)C(=O)CN1C[C@H](c2ccc3c(c2)OCO3)[C@@H](C(=O)O)[C@@H]1c1ccc(OC)cc1` [atrasentan, (2R,3R,4S)-4-(1,3-benzodioxol-5-yl)-1-[2-(dibutylamino)-2-oxoethyl]-2-(4-methoxyphenyl)pyrrolidine-3-carboxylic acid], the “% KI-67 nuclear positivity” value in data set [3] (two week post ischemic kidney, control ischemia 11.4±0.8%, normal kidneys 2.4±0.6%) worked out at 10.8±1.2%. Further, the “histologic injury score (semiquantitative 1+ to 4+, least to most severe)” value in data set [3] (two weeks post ischemia, control ischemia 3.4±0.3, p<0.01, mean±SEM) came to 1.7±0.4. Moreover, in data set [2] (atrasentan commenced 24 hours after induction of ischemic damage, two weeks), the “post ischemic loss of renal mass (renal weight)” value is given as “completely blocked this loss of renal mass”. Moreover, the “post ischemic kidney weight (renal mass)” value in data set [2] (atrasentan in drinking water ~5 mg/Kg/day, started one day before 30 min unilateral ischemia and continued two weeks post ischemia, vs normal kidneys) was “did not significantly differ from that of normal kidneys”. Also, in data set [2] (pre+post atrasentan, two weeks, drug vs. no-drug groups), the “contralateral (non ischemic) kidney weight, hypertrophic response” value is listed as “no effect on this hypertrophic response”. Besides, the “severity of AKI by BUN and plasma creatinine concentrations” value in data set [4] (atrasentan 24 hours before and 24 hours after, assessed 24 hours post ischemia) was “failed to mitigate the severity of AKI”. The “renal cortical NGAL mRNA levels” value in data set [4] (atrasentan 24 hours before and after, 24 hours post ischemia) is recorded as “in neither instance did atrasentan decrease these NGAL mRNA increases”. Moreover, the LDH release in data set [5] (CAD (antimycin A/Ca ionophore/2-deoxyglucose) + 5 μg atrasentan, 18 hours, CAD alone 22.8±0.2%) worked out at 23.2±0.3%; in data set [5] (human, 18 h, 5 μg/mL) it was 9.0±0.1%.

These data come from US20160015701A1, “Methods of Treating Acute Kidney Injury” (ABBIVE INC., priority 2013, published 2016).
